≈ marks a conversion by molar mass, not a printed value. Blank lines part the entries; values can stand above or below the molecule they belong to.
Columns and labels:
[1] = test system: Herpes Simplex Virus Type 1; test: Neutral red dye uptake assay for antiviral activity, HSV-1 in Vero cells; type: cell-based; details: Human alphaherpesvirus 1, HSV-1, Vero, concentration at which 50% CPE would be observed, read-out: MIC50
Description: (§1) Vero cell monolayers were harvested by trypsinization. The number of viable cells per ml. was determined by staining an aliquot with trypan blue and counting in a hemocytometer. Cell densities were adjusted in growth medium to contain 4×10^5 cells/mi. 96-well sterile tissue culture plates were seeded with 100 μl/well of the adjusted cell suspensions, i.e., 4×10^4 cells/well. Seeded plates were incubated overnight at 37° C. with CO2.
(§2) After overnight incubation, monolayers were approximately confluent. The growth medium was removed and the monolayers in each cell were infected with 100 μl of virus diluted in maintenance medium to produce approximately 90% cytopathogenic effect (CPE) after 2 to 3 days incubation. The virus was allowed to adsorb for 1 hour at 37° C. with 4 to 6% CO2. Controls for cell growth were overlayed with virus-free maintenance medium. The maintenance medium containing residual virus was removed.
(§3) The test compounds were dissolved and/or diluted in maintenance medium to the concentration desired for testing and were added to the wells of the plate. Aliquots (100 μl ) of each concentration were added to wells in replicate (duplicate or triplicate). Controls for virus activity were overlayed with drug-free maintenance medium. Replicate wells containing only maintenance medium served as controls for background absorbance levels.
After incubation, the medium was removed from all the wells. 100 μl of neutral red solution was added to each well and the plate was incubated at 37° C. without CO2 for 2 hours. After the 2 hour incubation, the excess neutral red solution was removed. […]
The neutral red stain taken up by the viable cells was extracted by adding 100 μl/well of acidified methanol, pH 1.0. […] The amount of neutral red stain extracted into the methanol was quantified by determining the absorbance at a wavelength of 540 nm.
The percent CPE in virus controls was determined by the following formula: [formula]
The percent CPE in cells infected with virus and treated with the test compound was determined by the following formula: [formula] […]

HSV-2 (MS) = test: CPE inhibition assay (MTT), HSV-2 (MS) in Vero cells; type: cell-based, herpes simplex virus type 2; details: Human alphaherpesvirus 2, inhibited CPE by 50%
Description: (§4) Vero cells were pregrown as monolayers in wells of COSTAR 96-well tissue culture plates using suitable cell culture media. Stock viruses were pretitered according to the method of Reed and Muench (Amer. J. Hyg. 27 493 (1938)) and diluted in cell culture medium to yield 32 CCID50 (cell culture infectious dose, 50%) units per 0.1 mL. Antiviral assays were designed to test six concentrations of each compound, from cytotoxic to noncytotoxic levels, in triplicate against each of the challenge viruses in microtiter plate wells containing cell monolayers. To each of the replicate cell cultures were added 0.1 mL of the test-compound solution and 0.1 mL of virus suspension. Two compounds were evaluated per plate. The following controls were included:
(§5) (1) Cell controls containing cells+medium;
(§6) (2) Untreated, virus-infected cell controls;
(§7) (3) Test-compound cytotoxicity controls containing uninfected, test-compound treated cells;
(§8) (4) Test-compound color controls-test-compound+medium (no cells); and
(§9) (5) Reagent (experiment medium) controls-medium only (no cells).
The covered plates were incubated at 37° C. in a humidified atmosphere containing 2% CO2. When cytopathogenic effect (CPE) in untreated virus control wells reached 100%, 20 μL of 3-(4,5-dimethyl-thiazol-2-yl)-2,5-diphenyl tetrazolium bromide (MTT) (dissolved in PBS at 5 mg/mL) was pipetted into each of the plate wells. The plates were incubated at 37° C. for six hours; then 40 μL of 30% SDS (in 0.02N HCl) was added to each well. After overnight incubation at 37° C., the blue color or the MTT formazan was measured spectrophotometrically at 570 nm. The optical density (OD) value of each culture is a function of the amount of formazan produced which is proportional to the number of viable cells. A computer program was utilized to calculate the percent (CPE) reciprocal of % CPE reduction) of the virus-infected wells and % cell viability of the uninfected test-compound control wells. […]

in vitro = type: cell-based, African green monkey; details: monkey, vero cells
Description: as §1, §2, §3
After incubation, the medium was removed from all the wells. 100 μl of neutral red solution was added to each well and the plate was incubated at 37° C. without CO2 for 2 hours. After the 2 hour incubation, the excess neutral red solution was removed. The plates were washed with 100 μl/well of PBS, pH 7.2 and then the PBS was removed.
The neutral red stain taken up by the viable cells was extracted by adding 100 μl/well of acidified methanol, pH 1.0. (The acidified methanol fixed the cells to the well). The plate was allowed to stand at room temperature for at least 15 minutes to allow for maximum extraction. The amount of neutral red stain extracted into the methanol was quantified by determining the absorbance at a wavelength of 540 nm. […]

HSV-1 (E-377) = test: CPE inhibition assay (MTT), HSV-1 (E-377) in Vero cells; type: cell-based, herpes simplex virus type 1; details: Human alphaherpesvirus 1, inhibited CPE by 50%
Description: as §4, §5, §6, §7, §8, §9
The covered plates were incubated at 37° C. in a humidified atmosphere containing 2% CO2. When cytopathogenic effect (CPE) in untreated virus control wells reached 100%, 20 μL of 3-(4,5-dimethyl-thiazol-2-yl)-2,5-diphenyl tetrazolium bromide (MTT) (dissolved in PBS at 5 mg/mL) was pipetted into each of the plate wells. The plates were incubated at 37° C. for six hours; then 40 μL of 30% SDS (in 0.02N HCl) was added to each well. After overnight incubation at 37° C., the blue color or the MTT formazan was measured spectrophotometrically at 570 nm. The optical density (OD) value of each culture is a function of the amount of formazan produced which is proportional to the number of viable cells. A computer program was utilized to calculate the percent (CPE) reciprocal of % CPE reduction) of the virus-infected wells and % cell viability of the uninfected test-compound control wells.
The IC50 value is the minimum test-compound concentration (μg/mL) that inhibited CPE by 50% calculated by using a regression analysis program for semilog curve fitting. The TC25 value is the minimum test-compound concentration (μg/mL) that reduced cell viability by 25%.

[2] = test system: Varicella-Zoster Virus (VZV) clinical isolate DM625; test: VZV plaque reduction assay; type: cell-based; details: Human alphaherpesvirus 3, 144 h, VZV in HFF; for EC50: minimum concentration required to inhibit plaque formation by 50%, read-out: MIC50
Description: The compounds of the invention were evaluated for selective activity against varicella zoster virus (VCV) utilizing a plaque reduction assay procedure. The challenge virus was a clinical isolate designated DM625, obtained from Dr. Richard Whitley of the University of Alabama Hospitals, Birmingham, Ala. The virus had been passaged and titrated in cultures of human foreskin fibroblasts (HFF).
(§10) For the plaque reduction assay, sixth to twelfth passage human foreskin fibroblasts were seeded in wells of 12-well tissue culture plates and incubated at 37° C. in a humidified atmosphere containing 2% CO2 in air. Subconfluent HFF were rinsed with MEM and exposed to 0.5 ml/well of a suspension of VZV diluted in MEM+2% FBS for 2 hours at 37° C. Following the virus adsorption period, the inocula were removed and the infected cell layers were rinsed with MEM. Triplicate VZV-infected cell culture wells were treated with 1.0 ml of each concentration of test compound (in MEM+2% FBS). Six untreated virus-infected cell cultures and triplicate untreated uninfected cell cultures were fed with 1.0 ml of MEM+2% FBS to serve as controls. Wells containing uninfected HFF were treated with each concentration of test compound to monitor the test compound cytotoxicity. The 12-well plates were incubated at 37° C. in the CO2 incubator. At 48 hours post-virus infection (p.i.), fluids in all plate wells were replaced with fresh test compound and/or culture medium.
Six days p.i., the VZV plaques were counted (unstained, low magnification).The effect of each concentration of test compound on plaque formation was determined by comparing the mean number of plaques in the replicate test compound-treated cultures with the mean plaque counts of the untreated virus control cultures.
The MIC50 value is the minimum concentration of test Compound required to inhibit plaque formation by 50%.

[3] = MTT test compound cytotoxicity in human foreskin fibroblasts; type: cell-based; details: hff cells, read-out: MTT assay (Percent of control)
Description: as §10
The test compound cytotoxicity control cultures were examined microscopically for gross morphologic changes, then treated with MTT and 30% SDS. The blue color of the MTT formazan was measured spectrophotometrically at 570 nm. Test compound cytotoxicity was determined by comparing the absorbance (O.D.) of each test compound control with the mean O.D. of the cell control cultures and expressed as percent of control.

Vero cells = test: MTT cell viability of uninfected test-compound control Vero cells; type: cell-based, African green monkey; details: reduced cell viability by 25%, HSV-1 (E-377) line
Description: as §4, §7
The covered plates were incubated at 37° C. in a humidified atmosphere containing 2% CO2. When cytopathogenic effect (CPE) in untreated virus control wells reached 100%, 20 μL of 3-(4,5-dimethyl-thiazol-2-yl)-2,5-diphenyl tetrazolium bromide (MTT) (dissolved in PBS at 5 mg/mL) was pipetted into each of the plate wells. The plates were incubated at 37° C. for six hours; then 40 μL of 30% SDS (in 0.02N HCl) was added to each well. After overnight incubation at 37° C., the blue color or the MTT formazan was measured spectrophotometrically at 570 nm. […]

- IC50 (HSV-2 (MS)): 6.3 µg/mL (≈ 24.8 µM)
Structure (SMILES): C=Cc1cn([C@@H]2O[C@H](CO)[C@H]2CO)c(=O)[nH]c1=O [Example 61, 1-([2'R, 3'R, 4'S]-3',4'-Bis(hydroxymethyl)-2'-oxetanyl)-5-vinyluracil]
- EC50 [1]: 0.02 µg/mL (≈ 0.0787 µM)
- CC50 (in vitro): > 1000 µg/mL

- IC50 (HSV-1 (E-377)): 0.7 µg/mL (≈ 2.28 µM)
- EC50 [2]: 0.17 µg/mL (≈ 0.554 µM)
- IC50 (HSV-2 (MS)): 141 µg/mL (≈ 459 µM)
Structure (SMILES): O=c1[nH]c(=O)n([C@@H]2O[C@H](CO)[C@H]2CO)cc1Br [Example 43, 1-([2'R, 3'R, 4'S]-3',4'-Bis(hydroxymethyl)-2'-oxetanyl)-5-bromouracil]
- inhibition at 0.032 µM [2]: 1%
- inhibition at 0.1 µM [2]: 12%
- inhibition at 0.32 µM [2]: 41%
- inhibition at 1 µM [2]: 75%
- inhibition at 3.2 µM [2]: 98%
- inhibition at 10 µM [2]: 99%
- inhibition at 32 µM [2]: 99%
- inhibition at 100 µM [2]: 100%
- inhibition at 320 µM [2]: 100%
- inhibition at 1000 µM [2]: 100%
- viability at 0.032 µM ([3]; 0.032 μM): 100%
- viability at 0.1 µM [3]: 100%
- viability at 0.32 µM [3]: 96%
- viability at 1 µM [3]: 100%
- viability at 3.2 µM [3]: 93%
- viability at 10 µM [3]: 99%
- viability at 32 µM [3]: 93%
- viability at 100 µM [3]: 100%
- viability at 320 µM [3]: 88%
- viability at 1000 µM [3]: 82%

- IC50 (HSV-1 (E-377)): 0.67 µg/mL (≈ 1.76 µM)
- EC50 [2]: 0.01 µg/mL (≈ 0.0263 µM)
Structure (SMILES): O=c1[nH]c(=O)n([C@@H]2O[C@H](CO)[C@H]2CO)cc1C=CI [Example 49, 1([2'R, 3'R, 4'S]-3',4'-Bis(hydroxymethyl)-2'-oxetanyl)-5-(2-iodo-1-vinyl)uracil]
- TC25 (Vero cells): > 380 µg/mL
- inhibition at 0.0032 µM ([2]; 0.0032 μM): 18%
- inhibition at 0.01 µM ([2]; 0.01 μM): 49%
- inhibition at 0.032 µM [2]: 97%
- inhibition at 0.1 µM [2]: 98%
- inhibition at 0.32 µM [2]: 98%
- inhibition at 1 µM [2]: 99%
- viability at 0.1 µM [3]: 100%
- viability at 0.32 µM [3]: 100%
- viability at 1 µM [3]: 100%

- IC50 (HSV-1 (E-377)): 0.05 µg/mL (≈ 0.141 µM)
- EC50 [2]: 0.1 µg/mL (≈ 0.282 µM)
- IC50 (HSV-2 (MS)): 35.3 µg/mL (≈ 99.7 µM)
Structure (SMILES): O=c1[nH]c(=O)n([C@@H]2O[C@H](CO)[C@H]2CO)cc1I [Example 42, 1-([2'R, 3'R, 4'S]-3',4'-Bis(hydroxymethyl)-2'-oxetanyl)-5-iodouracil]
- inhibition at 0.032 µM [2]: 7%
- inhibition at 0.1 µM [2]: 2%
- inhibition at 0.32 µM [2]: 54%
- inhibition at 1 µM [2]: 76%
- inhibition at 3.2 µM [2]: 98%
- inhibition at 10 µM [2]: 99%
- inhibition at 32 µM [2]: 100%
- inhibition at 100 µM [2]: 100%
- inhibition at 320 µM [2]: 99.6%
- inhibition at 1000 µM [2]: 100%
- viability at 1 µM [3]: 93%
- viability at 3.2 µM [3]: 94%
- viability at 10 µM [3]: 80%
- viability at 32 µM [3]: 88%
- viability at 100 µM [3]: 82%
- viability at 320 µM [3]: 79%
- viability at 1000 µM [3]: 68%

From US5420276A, “Analogs of oxetanyl purines and pyrimidines” (Abbott Laboratories, priority 1993, dated 1995)
